As usually defined, the inhibition is the percentage by which the read-out fell short of the control.

Consider 2 compounds from paper PMC12750888, “Design, synthesis, and anti-Toxoplasma gondii evaluation of β-carboline derivatives” (Parasites & Vectors, 2025).

One data set concerns T. gondii PRU strain. The data set can be described thus: In vitro activity against PRU strain tachyzoites (PV counts, plaques). It is filed as cell-based, Toxoplasma gondii. To be noted: NBZ023 2.85 or 30 μM, NBZ035 1.6 or 30 μM; 24, 48, 72 h. The protocol:
Vero cells were infected for 8 h with extracellular type II PRU strain tachyzoites (1.5 × 10^5), which were isolated from a mouse brain, and then the medium containing compounds or 0.1% DMSO (as a control) was added. After 24, 48, and 72 h of incubation, the numbers of PVs were assessed via […] under a 40 × objective lens, and at least 20 random fields per well were counted.

The nature of data set [1]: Cell viability assay (CCK-8) on Vero cells. It is filed as cell-based, African green monkey. Particulars: African green monkey, CCK-8, read-out: half-maximal cytotoxic concentration (CC50) against host cells. On the procedure: (§1) African green monkey kidney (Vero) cells were cultured in Dulbecco’s modified Eagle’s medium (DMEM) supplemented with 100 U/mL penicillin, 100 μg/mL streptomycin, 1% nonessential amino acids (NEAAs), 1% GlutaMAX and 10% fetal bovine serum (FBS) at 37 °C in an atmosphere of 5% CO2. […] DMEM without a drug was used as a control. After 24 h of treatment, Cell Counting Kit-8 (CCK-8, CA1210, Solarbio) was used to determine cell viability at 450 nm via a Multiskan GO instrument.

The test system of another data set is Vero cells. The data set can be described thus: Cell viability assay (CCK-8) on Vero cells. The format is cell-based, African green monkey. To be noted: 24 h; for Cytotoxicity: CCK-8, tested up to 30 µM; for inhibition at 30 µM: Chlorocebus sabaeus, CCK-8, read-out: Inhibition rate of Vero cell at 30 μM. On the procedure:
as §1

The test system of the next data set is T. gondii RH tachyzoites. The data set is described as follows: Screening for anti-T. gondii activity in vitro (plaque and qPCR assays). It is filed as cell-based, Toxoplasma gondii. To be noted: 30 μM screening. On the procedure:
The anti-T. gondii activity of compounds NBZ001‒037 was examined via RT-PCR. Confluent Vero cells in 6-well plates were infected with 2 × 10^5 T. gondii RH tachyzoites per well, incubated for 6 h, and then washed twice with PBS to remove extracellular tachyzoites. The cell monolayers were incubated with DMEM (1% FBS) containing various concentrations of NBZ001‒037 for 24 h. Total genomic DNA from each sample was isolated with the DNAiso reagent (Takara), and the levels of the 529-bp repeat element of T. gondii were measured by qPCR. A plaque assay was used to evaluate the activity of the compounds. The detailed experimental procedures were described in previous studies.
Background: Quantitative PCR measures a nucleic acid by following its amplification.

In data set [2] the test system is T. gondii RH strain tachyzoites. The data set can be described thus: In vitro anti-proliferation assay (qPCR of 529-bp repeat). It is filed as cell-based, Toxoplasma gondii. Particulars: for IC50: Toxoplasma gondii, RH strain in Vero cells, 24 h treatment, qPCR, read-out: IC50, inhibition of T. gondii proliferation. On the procedure:
The antiproliferative effects of NBZ023 and NBZ035 on T. gondii were determined via qPCR, which was performed by using a QuantStudio 3 Flex real-time PCR system (Life Technologies). Cells were infected with tachyzoites (2 × 10^5 per well) for 6 h, then treated with NBZ023, NBZ035 (0.24‒30 μM) or pyrimethamine (0.4 μM) for 24 h, and washed twice with PBS. Infected or uninfected cells that were cultured with DMEM (1% FBS) were used as the parasite or the host cell control group, respectively. Total genomic DNA from the cell samples was isolated with the DNAiso reagent (Takara), and the levels of the 529-bp repeat sequence of T. gondii were measured via qPCR as before.

The subject of data set [3] is PRU strain bradyzoite cysts. The data set can be described thus: In vitro PRU bradyzoite cyst formation (DBA staining). The format is cell-based, Toxoplasma gondii. Particulars: PRU cysts in Vero cells, 48 h; NBZ023 2.85 or 30 μM, NBZ035 1.6 or 30 μM. On the procedure: The conditions for inducing the formation of cysts in vitro by the type II PRU strain were described in a previously published study. After the induction of cyst formation, the alkaline medium was removed and replaced with a medium containing NBZ023, NBZ035, or 0.1% DMSO as the control. After 48 h, the DMEM was removed, and the PRU strain bradyzoite cysts were stained with Dolichos biflorus agglutinin (DBA) to assess the treatment effects.The stained cysts were observed using light microscopy under a 40 × objective lens, with at least 3 random fields per well counted.

For data set [4], the system named is T. gondii Type I tachyzoites. The data set can be described thus: In vivo efficacy against acute T. gondii infection in mice (tissue parasite burden by qPCR). Also on record: species or system BALB/c mice. To be noted: acute RH infection, once daily for 7 days, compared with parasite control, NBZ compounds 10 mg/kg BW intraperitoneally, positive control orally. The protocol: Female BALB/c mice (18-20 g, 6-8 weeks old) were divided into 4 groups consisting of 6 mice each, and each mouse was injected intraperitoneally with 2 × 10^3 Type I tachyzoites. Four hours after inoculation, the treatments were administered once per day for 7 consecutive days. NBZ023 and NBZ035 were dissolved in isotonic saline containing 5% ethanol and 5% Cremophor EL to a concentration of 1 mg/mL for in vivo experiments. Sulfadiazine (10 mg/mL, Sigma, USA), pyrimethamine (5 mg/mL, Sigma, USA), and folinic acid (1.5 mg/mL, Sigma, USA) were suspended in isotonic saline containing 1% CMC-Na and used as positive drugs in in vivo experiments. […] After the mice were euthanized on the eighth day, the brains, livers, and spleens were collected. DNA was isolated with a DNA purification kit ([…], Omega Bio-Tek, USA). The in vivo efficacy of the compounds against T. gondii was evaluated via quantitative real-time PCR with DNA from the brain, liver, and spleen. The numbers of parasites in the tissue samples were determined using standard curves constructed using known numbers of tachyzoites, as previously described.

The next data set concerns T. gondii tachyzoites. The data set can be described thus: Ultrastructural analysis by transmission electron microscopy. It is filed as cell-based, Toxoplasma gondii. To be noted: NBZ023 2.85 μM, NBZ035 1.6 μM. On the procedure:
The effects of the incubation with the drugs on the ultrastructure of T. gondii tachyzoites were observed via transmission electron microscopy (TEM). For TEM analysis, Vero cells were grown to confluence in T25 flasks and infected with 2 × 10^6 T. gondii tachyzoites for 8 h. After NBZ023 (2.85 μM) or NBZ035 (1.6 μM) was added, the cells were cultured for 8 or 24 h, then digested with TrypLE Express for 2 min, and washed twice with PBS. The detailed experimental procedures were described in a previous study.

The test system of data set [5] is T. gondii RH strain tachyzoites. The data set is described as follows: In vitro anti-invasion assay (qPCR; RH-GFP fluorescence microscopy). Particulars: for IC50: Toxoplasma gondii, RH strain, Vero cells, 2 h after infection, qPCR, read-out: IC50, inhibition of T. gondii invasion; for number of parasitophorous vacuoles (PVs) invaded by RH-GFP tachyzoites: fluorescence microscopy, compared with control and positive control groups. The format is cell-based, Toxoplasma gondii. The protocol:
Vero cells were seeded onto 6-well plates and cultured with DMEM supplemented with 10% FBS to obtain cell monolayers. The medium was replaced with fresh DMEM (1% FBS) containing NBZ023 or NBZ035 (0.24–30 μM), pyrimethamine (0.4 μM) or no drugs (as a control), and tachyzoites (2 × 10^6 per well) were then inoculated into the confluent Vero cell monolayers. At 2 h after infection, the cell monolayers were washed twice with PBS to remove extracellular tachyzoites and then total genomic DNA from the cell samples was isolated with the DNAiso reagent (Takara). The anti-invasion capabilities of NBZ023 and NBZ035 were determined by qPCR. The T. gondii RH strain with green fluorescence was seeded as described above. After infection, the cells were incubated for 36 h to fully observe the infection status of the parasites via fluorescence microscopy.

Some results are limits rather than exact numbers.

As for `O=C(Nc1ccccc1)c1ccc2[nH]c3c(C(=O)c4cccc(Br)c4)nccc3c2c1` [NBZ023], the “proliferation ability of the T. gondii PRU strain (parasites per PV, number of PVs)” value in the data set with T. gondii PRU strain was “significantly (P ≤ 0.05) inhibited”. In addition, the CC50 at 24 h in data set [1] stood at 883 µM. In the data set on Vero cells, the Cytotoxicity was greater than 30.00 µM and the inhibition at 30 µM stood at 4.56%. In the data set with T. gondii RH tachyzoites, the “increase in potency compared with nonaromatic heterocycles (NBZ016–018)” value is given as 2- to 3 fold. Further, the “selectivity index (SI)” value in [2] (CC50 host cells / IC50 proliferation) is 309.8. For the same compound, the IC50 in [2] was 2.85 µM. In addition, the “inhibition of the formation of T. gondii cysts compared with control” value in [3] is given as “twofold”. Also, in data set [4], the “reduction of mean T. gondii burden in the liver” value is listed as 56.42%, the “reduction of mean numbers of T. gondii parasites in the brain” value turned out to be 70.72% and the “reduction of mean numbers of T. gondii parasites in the spleen” value turned out to be 68.90%. Further, in the data set on T. gondii tachyzoites (24 h of treatment), the “ultrastructural change of T. gondii tachyzoites (TEM)” value (“ultrastructural change” for short) is “the parasite ruptured, and severe cavitation occurred”. For the same compound, in the data set on T. gondii tachyzoites (incubation 8 h), the “ultrastructural change” value was “cracks in the somatic cytoplasm of the parasite”. In [5], the IC50 was 4.72 µM and the “number of parasitophorous vacuoles (PVs) invaded by RH-GFP tachyzoites” value is “significantly reduced”.
For the compound `O=C(Nc1ccccc1)c1ccc2[nH]c3c4[n+](ccc3c2c1)-c1ccccc1C4=O` [NBZ035], the “proliferation ability of the T. gondii PRU strain (parasites per PV, number of PVs)” value in the data set on T. gondii PRU strain is given as “significantly (P ≤ 0.05) inhibited”. Besides, the CC50 at 24 h in data set [1] is 80.6 µM. In the data set with Vero cells, the Cytotoxicity is greater than 30.00 µM and the inhibition at 30 µM amounted to 3.27%. Besides, in data set [2], the IC50 amounted to 1.6 µM. In addition, in data set [3], the “inhibition of the formation of T. gondii cysts compared with control” value is given as “twofold”. In data set [4], the “reduction of mean T. gondii burden in the liver” value is 88.52%, the “reduction of mean numbers of T. gondii parasites in the brain” value is 93.21% and the “reduction of mean numbers of T. gondii parasites in the spleen” value is reported as 89.40%. The “ultrastructural change” value with T. gondii tachyzoites (24 h of treatment) was “the parasite ruptured, and severe cavitation occurred”. In the data set with T. gondii tachyzoites (incubation 8 h), the “ultrastructural change” value is “cracks in the somatic cytoplasm of the parasite”. Further, in data set [5], the IC50 was 1.13 µM and the “number of parasitophorous vacuoles (PVs) invaded by RH-GFP tachyzoites” value is reported as “significantly reduced”.
